In patent publication US7678918B2, “Intermediates for imidazonaphthyridines” (3M Innovative Properties Company, priority 1997, dated 2010):

Assays:
TNF = test: Cytokine Induction in Human Cells: tumor necrosis factor (TNF) secreted by PBMCs, ELISA; assay type: cell-based; conditions: 18 to 24 hours; further: call rule not given here
Procedure, shortened: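 Human donor PBMCs at 1.5-2×10^6 cells/mL in RPMI with 10% FBS were exposed to compound, generally at 0.1 to 100 μM (≤1% DMSO final), for 18 to 24 h at 37 °C. Secreted TNF in supernatant was measured by ELISA and reported as pg/mL.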

IFN = test: Cytokine Induction in Human Cells: interferon (IFN) secreted by PBMCs, A549/encephalomyocarditis bioassay; assay type: cell-based; conditions: 18 to 24 hours; further: call rule not given here
Procedure, shortened: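 Human PBMCs from healthy donors at 1.5-2×10^6 cells/mL in RPMI with 10% FBS, exposed to compounds (typically 0.1 to 100 μM, ≤1% DMSO) for 18 to 24 h at 37° C. Secreted IFN measured by A549/encephalomyocarditis virus cytopathic-effect bioassay, in alpha reference units/mL against NIH human leukocyte IFN standard.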

interferon α = test: Interferon (α) Induction in Human Cells (PBM's, 48 hours, A549 bioassay); assay type: cell-based; set-up: key: +: indicates that the compound induced interferon α at that particular concentration; −: indicates that the compound did not induce interferon α at that particular concentration; ±: indicates that the results were equivocal at that particular concentration; conditions: 48 hours incubation
Description: An in vitro human blood cell system was used to assess interferon induction by compounds of the invention. Activity is based on the measurement of interferon secreted into culture media. Interferon is measured by bioassay.
Whole blood was collected by venipuncture into EDTA vacutainer tubes. Peripheral blood mononuclear cells (PBM's) were separated from whole blood by using either LeucoPREP™ Brand Cell Separation Tubes (available from Becton Dickinson) or Ficoll-Paque® solution (available from Pharmacia LKB Biotechnology Inc, Piscataway, N.J.). The PBM's were suspended at 1×10^6/mL in RPMI 1640 media (available from GIBCO, Grand Island, N.Y.) containing 25 mM HEPES (N-2-hydroxyethylpiperazine-N′-2-ethanesulfonic acid) and L-glutamine (1% penicillin-streptomycin solution added) with 10% heat inactivated (56° C. for 30 minutes) autologous serum added. 200 μL portions of PBM suspension were added to 96 well (flat bottom) MicroTest III sterile tissue culture plates.
The compounds were solubilized in ethanol, dimethyl sulfoxide or tissue culture water then diluted with tissue culture water, 0.01N sodium hydroxide or 0.01N hydrochloric acid (The choice of solvent will depend on the chemical characteristics of the compound being tested.). Ethanol or DMSO concentration should not exceed a final concentration of 1% for addition to the culture wells. Compounds were initially tested in a concentration range of from about 0.1 μg/mL to about 5 μg/mL. Compounds which show induction at a concentration of 0.5 μg/mL were then tested in a wider concentration range.
The solution of test compound was added in a volume (less than or equal to 50 μL) to the wells containing 200 μL of diluted whole blood or of PBM's in media. Solvent and/or media was added to control wells (wells with no test compound) and as needed to adjust the final volume of each well to 250 μL. The plates were covered with plastic lids, vortexed gently and then incubated for 48 hours at 37° C. with a 5% carbon dioxide atmosphere.
Following incubation, the plates were covered with parafilm and then centrifuged at 1000 rpm for 10 to 15 minutes at 4° C. in a Damon IEC Model CRU-5000 centrifuge. Media (about 200 μL) was removed from 4 to 8 wells and pooled into 2 mL sterile freezing vials. Samples were maintained at −70° C. until analysis.
Interferon was determined by bioassay using A549 human lung carcinoma cells challenged with encephalomyocarditis. The details of the bioassay method have been described by G. L. Brennan and L. H. Kronenberg in “Automated Bioassay of Interferons in Micro-test Plates”, Biotechniques, June/July 78, 1983, incorporated herein by reference. Briefly stated the method is as follows: interferon dilutions and A549 cells are incubated at 37° C. for 12 to 24 hours. The incubated cells are infected with an inoculum of encephalomyocarditis virus. The infected cells are incubated for an additional period at 37° C. before quantifying for viral cytopathic effect. The viral cytopathic effect is quantified by staining followed by spectrophotometric absorbance measurements. Results are expressed as alpha reference units/mL based on the value obtained for NIH HU IF-L standard. The interferon was identified as essentially all interferon alpha by testing in checkerboard neutralization assays against rabbit anti-human interferon (beta) and goat anti-human interferon (alpha) using A549 cell monolayers challenged with encephalomyocarditis virus.

Cc1nc2c(N)nc3cccnc3c2n1CC(C)C [Example 36, 2-Methyl-1-(2-methylpropyl)-1H-imidazo[4,5-c][1,5]naphthyridin-4-amine]
TNF induction (TNF; Dose Concentration 1.0 μM): −
TNF induction (TNF; Dose Concentration 10.0 μM): +
TNF induction (TNF; Dose Concentration 100.0 μM): −
IFN induction (IFN; Dose Concentration 1.0 μM): +
IFN induction (IFN; Dose Concentration 10.0 μM): +
IFN induction (IFN; Dose Concentration 100.0 μM): +
melting point: 228 to 230 °C
Interferon (α) Induction in Human Cells (interferon α; Dose Concentration 0.01 μg/mL): −
Interferon (α) Induction in Human Cells (interferon α; Dose Concentration 0.05 μg/mL): +
Interferon (α) Induction in Human Cells (interferon α; Dose Concentration 0.10 μg/mL): +
Interferon (α) Induction in Human Cells (interferon α; Dose Concentration 0.50 μg/mL): +
Interferon (α) Induction in Human Cells (interferon α; Dose Concentration 1.0 μg/mL): +
Interferon (α) Induction in Human Cells (interferon α; Dose Concentration 5.0 μg/mL): +
Interferon (α) Induction in Human Cells (interferon α; Dose Concentration 10.0 μg/mL): +
Interferon (α) Induction in Human Cells (interferon α; Dose Concentration 25.0 μg/mL): +
Interferon (α) Induction in Human Cells (interferon α; Dose Concentration 50.0 μg/mL): +
